ChEMBL document CHEMBL1155191, “Simple dihydrosphyngosine analogues with potent activity against MDR-Mycobacterium tuberculosis” (2009)
Converted amounts (≈) assume the structure as drawn.

Test system: Mycobacterium tuberculosis
Assay: Antimycobacterial activity against multidrug-resistant Mycobacterium tuberculosis 411 after 5 to 7 days by microplate alamar blue assay
Format: functional

Point of comparison: `CCCCCCCCCCCCCCC(N)CN(CC)CC` (stereo not drawn), MIC 40 µM (≈ 12.5 µg/mL). Against it:
- CCCCCCCCCCCCCCC(N)COCc1ccccc1 (stereo not drawn) — 8.9-fold lower, 4.5 µM (≈ 1.56 µg/mL)
- CCCCCCCCCCCCCCC(COCc1ccccc1)N(CC)CC (stereo not drawn) — 5.2-fold lower, 7.7 µM (≈ 3.11 µg/mL)

Test system: Mycobacterium tuberculosis
Assay: Antimycobacterial activity against multidrug-resistant Mycobacterium tuberculosis 528 after 5 to 7 days by microplate alamar blue assay
Format: functional

Point of comparison: `CCCCCCCCCCCCCCC(N)COCc1ccccc1` (stereo not drawn), MIC 18 µM (≈ 6.26 µg/mL). Against it:
- CCCCCCCCCCCCCCC(N)CN(CC)CC (stereo not drawn) — 2.2-fold higher, 40 µM (≈ 12.5 µg/mL)
- CCCCCCCCCCCCCCC(COCc1ccccc1)N(CC)CC (stereo not drawn) — within 1.5-fold, 15.5 µM (≈ 6.26 µg/mL)

Test system: Mycobacterium tuberculosis
Assay: Antimycobacterial activity against multidrug-resistant Mycobacterium tuberculosis 331 after 5 to 7 days by microplate alamar blue assay
Format: functional

Point of comparison: `CCCCCCCCCCCCCCC(N)COCc1ccccc1` (stereo not drawn), MIC 9 µM (≈ 3.13 µg/mL). Against it:
- CCCCCCCCCCCCCCC(N)CN(CC)CC (stereo not drawn) — 4.4-fold higher, 40 µM (≈ 12.5 µg/mL)
- CCCCCCCCCCCCCCC(COCc1ccccc1)N(CC)CC (stereo not drawn) — 1.7-fold higher, 15.5 µM (≈ 6.26 µg/mL)

Test system: Mycobacterium tuberculosis
Assay: Antimycobacterial activity against multidrug-resistant Mycobacterium tuberculosis 332 after 5 to 7 days by microplate alamar blue assay
Format: functional

Point of comparison: `CCCCCCCCCCCCCCC(N)CN(CC)CC` (stereo not drawn), MIC 40 µM (≈ 12.5 µg/mL). Against it:
- CCCCCCCCCCCCCCC(N)COCc1ccccc1 (stereo not drawn) — within 1.5-fold, 36 µM (≈ 12.5 µg/mL)
- CCCCCCCCCCCCCCC(COCc1ccccc1)N(CC)CC (stereo not drawn) — 21-fold lower, 1.9 µM (≈ 0.767 µg/mL)

Test system: Mycobacterium tuberculosis
Assay: Antimycobacterial activity against multidrug-resistant, ethambutol-sensitive Mycobacterium tuberculosis 494 after 5 to 7 days by microplate alamar blue assay
Format: functional

Point of comparison: `CCCCCCCCCCCCCCC(N)CN(CC)CC` (stereo not drawn), MIC 40 µM (≈ 12.5 µg/mL). Against it:
- CCCCCCCCCCCCCCC(N)COCc1ccccc1 (stereo not drawn) — 4.4-fold lower, 9 µM (≈ 3.13 µg/mL)
- CCCCCCCCCCCCCCC(COCc1ccccc1)N(CC)CC (stereo not drawn) — 5.2-fold lower, 7.7 µM (≈ 3.11 µg/mL)

Test system: Mycobacterium tuberculosis
Assay: Antimycobacterial activity against streptomycin, rifampicin, pyrazinamide-sensitive isoniazid, ethambutol-resistant Mycobacterium tuberculosis 363 after 5 to 7 days by microplate alamar blue assay
Format: functional

Point of comparison: `CCCCCCCCCCCCCCC(COCc1ccccc1)N(CC)CC` (stereo not drawn), MIC 3.9 µM (≈ 1.57 µg/mL). Against it:
- CCCCCCCCCCCCCCC(N)COCc1ccccc1 (stereo not drawn) — 4.6-fold higher, 18 µM (≈ 6.26 µg/mL)
- CCCCCCCCCCCCCCC(N)CN(CC)CC (stereo not drawn) — 10-fold higher, 40 µM (≈ 12.5 µg/mL)

Test system: Mycobacterium tuberculosis
Assay: Antimycobacterial activity against multidrug-resistant, ethambutol-sensitive Mycobacterium tuberculosis 401 after 5 to 7 days by microplate alamar blue assay
Format: functional

Point of comparison: `CCCCCCCCCCCCCCC(N)COCc1ccccc1` (stereo not drawn), MIC 4.5 µM (≈ 1.56 µg/mL). Against it:
- CCCCCCCCCCCCCCC(N)CN(CC)CC (stereo not drawn) — 8.9-fold higher, 40 µM (≈ 12.5 µg/mL)
- CCCCCCCCCCCCCCC(COCc1ccccc1)N(CC)CC (stereo not drawn) — 1.7-fold higher, 7.7 µM (≈ 3.11 µg/mL)

Test system: Mycobacterium tuberculosis
Assay: Antimycobacterial activity against multidrug-resistant, streptomycin-sensitive Mycobacterium tuberculosis 429 after 5 to 7 days by microplate alamar blue assay
Format: functional

Point of comparison: `CCCCCCCCCCCCCCC(N)CN(CC)CC` (stereo not drawn), MIC 40 µM (≈ 12.5 µg/mL). Against it:
- CCCCCCCCCCCCCCC(N)COCc1ccccc1 (stereo not drawn) — 4.4-fold lower, 9 µM (≈ 3.13 µg/mL)
- CCCCCCCCCCCCCCC(COCc1ccccc1)N(CC)CC (stereo not drawn) — 5.2-fold lower, 7.7 µM (≈ 3.11 µg/mL)

Test system: Mycobacterium tuberculosis
Assay: Antimycobacterial activity against multidrug-resistant Mycobacterium tuberculosis 160 after 5 to 7 days by microplate alamar blue assay
Format: functional

Point of comparison: `CCCCCCCCCCCCCCC(N)COCc1ccccc1` (stereo not drawn), MIC 9 µM (≈ 3.13 µg/mL). Against it:
- CCCCCCCCCCCCCCC(N)CN(CC)CC (stereo not drawn) — 4.4-fold higher, 40 µM (≈ 12.5 µg/mL)
- CCCCCCCCCCCCCCC(COCc1ccccc1)N(CC)CC (stereo not drawn) — within 1.5-fold, 7.7 µM (≈ 3.11 µg/mL)

Test system: Mycobacterium tuberculosis
Assay: Antimycobacterial activity against multidrug-resistant Mycobacterium tuberculosis 535 after 5 to 7 days by microplate alamar blue assay
Format: functional

Point of comparison: `CCCCCCCCCCCCCCC(N)CN(CC)CC` (stereo not drawn), MIC 40 µM (≈ 12.5 µg/mL). Against it:
- CCCCCCCCCCCCCCC(N)COCc1ccccc1 (stereo not drawn) — 2.2-fold lower, 18 µM (≈ 6.26 µg/mL)
- CCCCCCCCCCCCCCC(COCc1ccccc1)N(CC)CC (stereo not drawn) — 10-fold lower, 3.9 µM (≈ 1.57 µg/mL)

Test system: Mycobacterium tuberculosis
Assay: Antimycobacterial activity against multidrug-resistant, pyrazinamide-sensitive Mycobacterium tuberculosis 366 after 5 to 7 days by microplate alamar blue assay
Format: functional

Point of comparison: `CCCCCCCCCCCCCCC(COCc1ccccc1)N(CC)CC` (stereo not drawn), MIC 3.9 µM (≈ 1.57 µg/mL). Against it:
- CCCCCCCCCCCCCCC(N)COCc1ccccc1 (stereo not drawn) — within 1.5-fold, 4.5 µM (≈ 1.56 µg/mL)
- CCCCCCCCCCCCCCC(N)CN(CC)CC (stereo not drawn) — 5.1-fold higher, 20 µM (≈ 6.25 µg/mL)
